Reference: article PMC7215574, “Development of Thiazolidinones as Fungal Carbonic Anhydrase Inhibitors” (International Journal of Molecular Sciences, 2020)
Like-named read-outs stand apart in the source and are kept apart here.

Tests used:
Experiment in all cases: microbe, parasite or virus in culture
Set-up in all cases: species or system clinical Candida isolates; CLSI broth microdilution MIC, Sabouraud dextrose broth, 35 °C, visual complete growth inhibition
C. albicans 5 strains = test system: T1, C. albicans 5 strains; conditions: Candida albicans, 24 h
T1 construct: 5 clinical isolates
Method: (§1) The in vitro antifungal activities were determined by the broth microdilution method with sabouraud dextrose broth (BBL Microbiology Systems, Cockeysville, MD, USA), as recommended by the by the CLSI [43]. Ninety-six-well polystyrene microtitre plates containing serial dilutions of each compound were inoculated with each microorganism to yield the appropriate density (1–5 × 10^3 cells/mL) in a 100-μL final volume. Each plate included (i) fungi without the addition of the compound, (ii) just the medium, and (iii) just the compound. Topical and systemic antifungal reference drugs, clotrimazole and fluconazole, were inserted in the experiment. The plates were incubated for 24 h at 35 °C. […] Three independent experiments were performed in triplicate. The antimicrobial activity of these thiazolidinones was evaluated versus 24 clinical Gram-positive (S. aureus and S. epidermidis) and Gram-negative (E. coli and Enterobacter spp.) microorganisms. The antifungal activity of these derivatives was then tested versus 16 clinical fungal isolates belonging to the most relevant Candida spp. (C. albicans, C. tropicalis, C. parapsilosis, C. sakè, and C. glabrata). Prior to testing, each isolate was cultured on a selective medium to ensure purity and optimal growth, as previously reported. The isolates were routinely identified by the morphological aspects of colonies and by biochemical identification. The used clinical isolates were collected from specimens of patients at the ‘Azienda Policlinico Umberto I’ (Sapienza University of Rome) and were obtained from hematology/oncology and surgery departments, which also included an intensive care unit. In particular, the samples were isolated from the upper and lower respiratory tract, blood, and indwelling venous catheters; the isolates were identified by conventional methodologies. Participating subjects gave their written informed consent for this study.

[1] = test system: T2, Candida sake C. sakè 3 strains; conditions: Fermentozyma sake, 24 h; read-out: Tested Fungi (MIC Values μg/mL) / C. sakè 3 strains / 8–32
T2 construct: 3 clinical isolates
Method: as §1

C. tropicalis 3 strains = test system: T3, C. tropicalis 3 strains; conditions: Candida tropicalis, 24 h, read-out: Tested Fungi (MIC Values μg/mL) / C. tropicalis 3 strains
T3 construct: 3 clinical isolates
Method: as §1

C. glabrata 3 strains = test system: T4, C. glabrata 3 strains; conditions: Nakaseomyces glabratus, 24 h, read-out: Tested Fungi (MIC Values μg/mL) / C. glabrata 3 strains / 8–32
T4 construct: 3 clinical isolates
Method: as §1

[2] = test system: T5, C. parapsilosis 2 strains; conditions: Lodderomyces parapsilosis, 24 h, read-out: Tested Fungi (MIC Values μg/mL) / C. parapsilosis 2 strains
T5 construct: 2 clinical isolates
Method: as §1

Measured: MIC

Clc1ccccc1C(c1ccccc1)(c1ccccc1)n1ccnc1 [Clotrimazole]
2 µg/mL: C. albicans 5 strains; read-out: Tested Fungi (MIC Values μg/mL) / C. albicans 5 strains / 8–32 / 32–128 | [1] | C. tropicalis 3 strains | C. glabrata 3 strains | [2]

OC(Cn1cncn1)(Cn1cncn1)c1ccc(F)cc1F [Fluconazole]
2 µg/mL: C. albicans 5 strains; read-out: Tested Fungi (MIC Values μg/mL) / C. albicans 5 strains / 32–128 | [1] | C. tropicalis 3 strains | C. glabrata 3 strains | [2]
